Assays:
SLA-1*07:02 = test: Peptide-MHC class I complex stability, scintillation proximity assay (SPA); design: species or system pig; conditions: biotinylated recombinant SLA heavy chain, 125I-β2m, excess unlabeled β2m, read every 40 min, number only if t1/2 ≥ 0.5 h, '-' = not stably binding
Description: (§1) The stability of the selected 198 peptides in complex with relevant SLA class I molecules and β2m was determined using a scintillation proximity assay (SPA), as previously described (Harndahl et al., [2011]). Briefly, biotinylated recombinant MHC class I heavy chains were attached to a streptavidin-coated scintillation microplate together with iodinated (^125I) β2m and candidate peptide resulting in a scintillation signal, which was consecutively measured every 40 min by a scintillation plate counter. The duration of this signal is directly correlated to the stability of the peptide-MHC class I-β2m complex under dissociating conditions and in the presence of excess unlabeled β2m (Harndahl et al., [2011]). Peptides with a half-life ≥ 0.5 h were selected as stable binders.

PBMCs = test: In vitro peptide stimulation of porcine PBMCs, IFN-γ release assay (ELISA); format: cell-based, pig; design: key to T cell response: “x” indicates that a response was found to this given peptide at least once; conditions: PBMCs of immunized pigs, 2 × 10^5/well, 5 μg/ml peptide, 67.5–70.0 h, IFN-γ ELISA; response = 2-fold increase vs day -2 and at least 25 pg/ml IFN-γ, found at least once; SLA restriction not included
SLA-2*05:02 = test: Peptide-MHC class I complex stability, scintillation proximity assay (SPA); design: species or system pig; conditions: biotinylated recombinant SLA heavy chain, 125I-β2m, excess unlabeled β2m, read every 40 min, number only if t1/2 ≥ 0.5 h, '-' = not stably binding
Description: as §1

SLA-2*04:01 = test: as above; design: species or system pig; conditions: biotinylated recombinant SLA heavy chain, 125I-β2m, excess unlabeled β2m, read every 40 min, number only if t1/2 ≥ 0.5 h, '-' = not stably binding
Description: as §1

SLA-3*04:01 = test: as above; design: species or system pig; conditions: biotinylated recombinant SLA heavy chain, 125I-β2m, excess unlabeled β2m, read every 40 min, number only if t1/2 ≥ 0.5 h, '-' = not stably binding
Description: as §1

Sequence	Binder (t1/2 ≥ 0.5 h): half-life of peptide-SLA-1*07:02 complex (SLA-1*07:02)	T cell response (PBMCs)	Binder (t1/2 ≥ 0.5 h): half-life of peptide-SLA-2*05:02 complex (SLA-2*05:02)	further results
CPNVPIILV [RhoC5, porcine RhoC-derived 9-11mer peptide]	42 min	x		
DPSGPMTYKNM [IDO12, porcine IDO-derived 9-11mer peptide]	30 min	x		
EPVRSEEGRDM [RhoC20, porcine RhoC-derived 9-11mer peptide]	30 min			
EVEKLATLSI [IDO20, porcine IDO-derived 9-11mer peptide]		x	42 min	
EVKHFCPNV [RhoC23, porcine RhoC-derived 9-11mer peptide]		x	120 min	
EVKHFCPNVPI [RhoC24, porcine RhoC-derived 9-11mer peptide]		x	336 min	
EVYVPTVFENY [RhoC25, porcine RhoC-derived 9-11mer peptide]	264 min			Binder (t1/2 ≥ 0.5 h): half-life of peptide-SLA-2*04:01 complex (SLA-2*04:01): 36 min
FLHSLESGPSV [IDO23, porcine IDO-derived 9-11mer peptide]		x	36 min	
FLQEMRTYM [IDO24, porcine IDO-derived 9-11mer peptide]	- (t1/2 (hours) is listed for each of the stably binding peptides (t1/2 ≥ 0.5 h))			
FPGGDCGKGFF [IDO30, porcine IDO-derived 9-11mer peptide]	- (t1/2 (hours) is listed for each of the stably binding peptides (t1/2 ≥ 0.5 h))			
HLVLGYITM [IDO40, porcine IDO-derived 9-11mer peptide]	- (t1/2 (hours) is listed for each of the stably binding peptides (t1/2 ≥ 0.5 h))			
HLVLGYITMAY [IDO41, porcine IDO-derived 9-11mer peptide]	30 min			
HPYDAWIAI [IDO42, porcine IDO-derived 9-11mer peptide]	- (t1/2 (hours) is listed for each of the stably binding peptides (t1/2 ≥ 0.5 h))			
HPYDAWIAIAK [IDO43, porcine IDO-derived 9-11mer peptide]	- (t1/2 (hours) is listed for each of the stably binding peptides (t1/2 ≥ 0.5 h))			
KGFFLVSLL [IDO49, porcine IDO-derived 9-11mer peptide]			- (t1/2 (hours) is listed for each of the stably binding peptides (t1/2 ≥ 0.5 h))	Binder (t1/2 ≥ 0.5 h): half-life of peptide-SLA-3*04:01 complex (SLA-3*04:01): - (t1/2 (hours) is listed for each of the stably binding peptides (t1/2 ≥ 0.5 h))
KLGLPPILVY [IDO55, porcine IDO-derived 9-11mer peptide]	- (t1/2 (hours) is listed for each of the stably binding peptides (t1/2 ≥ 0.5 h))			
KVLPRNIAI [IDO62, porcine IDO-derived 9-11mer peptide]			- (t1/2 (hours) is listed for each of the stably binding peptides (t1/2 ≥ 0.5 h))	Binder (t1/2 ≥ 0.5 h): half-life of peptide-SLA-3*04:01 complex (SLA-3*04:01): - (t1/2 (hours) is listed for each of the stably binding peptides (t1/2 ≥ 0.5 h))
LGLPPILVY [IDO65, porcine IDO-derived 9-11mer peptide]	- (t1/2 (hours) is listed for each of the stably binding peptides (t1/2 ≥ 0.5 h))			Binder (t1/2 ≥ 0.5 h): half-life of peptide-SLA-2*04:01 complex (SLA-2*04:01): - (t1/2 (hours) is listed for each of the stably binding peptides (t1/2 ≥ 0.5 h))
LLVEIAAASAI [IDO68, porcine IDO-derived 9-11mer peptide]		x	30 min	
LPNPLEELPH [IDO69, porcine IDO-derived 9-11mer peptide]	- (t1/2 (hours) is listed for each of the stably binding peptides (t1/2 ≥ 0.5 h))			
LPRNIAIPY [IDO70, porcine IDO-derived 9-11mer peptide]	60 min	x		
LSYPDTDVIL [RhoC36, porcine RhoC-derived 9-11mer peptide]		x	36 min	

Sequence	Binder (t1/2 ≥ 0.5 h): half-life of peptide-SLA-1*07:02 complex (SLA-1*07:02)	T cell response (PBMCs)	Binder (t1/2 ≥ 0.5 h): half-life of peptide-SLA-2*05:02 complex (SLA-2*05:02)	further results
LVLGYITMAY [IDO73, porcine IDO-derived 9-11mer peptide]	240 min			Binder (t1/2 ≥ 0.5 h): half-life of peptide-SLA-2*04:01 complex (SLA-2*04:01): 48 min
MPPAHRNFLH [IDO77, porcine IDO-derived 9-11mer peptide]	- (t1/2 (hours) is listed for each of the stably binding peptides (t1/2 ≥ 0.5 h))			
MTYKNMDIL [IDO80, porcine IDO-derived 9-11mer peptide]			- (t1/2 (hours) is listed for each of the stably binding peptides (t1/2 ≥ 0.5 h))	Binder (t1/2 ≥ 0.5 h): half-life of peptide-SLA-2*04:01 complex (SLA-2*04:01): - (t1/2 (hours) is listed for each of the stably binding peptides (t1/2 ≥ 0.5 h)); Binder (t1/2 ≥ 0.5 h): half-life of peptide-SLA-3*04:01 complex (SLA-3*04:01): - (t1/2 (hours) is listed for each of the stably binding peptides (t1/2 ≥ 0.5 h))
NPLEELPHPY [IDO86, porcine IDO-derived 9-11mer peptide]	312 min			
NPLLSEGLLY [IDO88, porcine IDO-derived 9-11mer peptide]	1440 min	x		
NSWKIFEEY [IDO89, porcine IDO-derived 9-11mer peptide]	- (t1/2 (hours) is listed for each of the stably binding peptides (t1/2 ≥ 0.5 h))			Binder (t1/2 ≥ 0.5 h): half-life of peptide-SLA-2*04:01 complex (SLA-2*04:01): 42 min
NSWKIFEEYHI [IDO91, porcine IDO-derived 9-11mer peptide]		x	126 min	
PLLSEGLLY [IDO95, porcine IDO-derived 9-11mer peptide]	42 min			
PPAHRNFLH [IDO97, porcine IDO-derived 9-11mer peptide]	66 min	x		
PPAHRNFLHSL [IDO98, porcine IDO-derived 9-11mer peptide]	42 min	x		
PPILVYADCV [IDO99, porcine IDO-derived 9-11mer peptide]	210 min	x		
QAMVSLRNY [IDO100, porcine IDO-derived 9-11mer peptide]	- (t1/2 (hours) is listed for each of the stably binding peptides (t1/2 ≥ 0.5 h))			
RPLSYPDTDV [RhoC46, porcine RhoC-derived 9-11mer peptide]	- (t1/2 (hours) is listed for each of the stably binding peptides (t1/2 ≥ 0.5 h))			
SAIKVIPTLF [IDO114, porcine IDO-derived 9-11mer peptide]		x	- (t1/2 (hours) is listed for each of the stably binding peptides (t1/2 ≥ 0.5 h))	Binder (t1/2 ≥ 0.5 h): half-life of peptide-SLA-2*04:01 complex (SLA-2*04:01): 30 min
SLRNYHLQI [IDO118, porcine IDO-derived 9-11mer peptide]			- (t1/2 (hours) is listed for each of the stably binding peptides (t1/2 ≥ 0.5 h))	Binder (t1/2 ≥ 0.5 h): half-life of peptide-SLA-3*04:01 complex (SLA-3*04:01): - (t1/2 (hours) is listed for each of the stably binding peptides (t1/2 ≥ 0.5 h))
TVFENYIADI [RhoC51, porcine RhoC-derived 9-11mer peptide]		x	54 min	
VPSGSAAGF [IDO128, porcine IDO-derived 9-11mer peptide]	- (t1/2 (hours) is listed for each of the stably binding peptides (t1/2 ≥ 0.5 h))			Binder (t1/2 ≥ 0.5 h): half-life of peptide-SLA-2*04:01 complex (SLA-2*04:01): - (t1/2 (hours) is listed for each of the stably binding peptides (t1/2 ≥ 0.5 h))
VSLRNYHLQI [IDO130, porcine IDO-derived 9-11mer peptide]			- (t1/2 (hours) is listed for each of the stably binding peptides (t1/2 ≥ 0.5 h))	Binder (t1/2 ≥ 0.5 h): half-life of peptide-SLA-3*04:01 complex (SLA-3*04:01): - (t1/2 (hours) is listed for each of the stably binding peptides (t1/2 ≥ 0.5 h))
WKIFEEYHI [IDO131, porcine IDO-derived 9-11mer peptide]		x	138 min	
YHLQIVTKY [IDO134, porcine IDO-derived 9-11mer peptide]	- (t1/2 (hours) is listed for each of the stably binding peptides (t1/2 ≥ 0.5 h))			Binder (t1/2 ≥ 0.5 h): half-life of peptide-SLA-2*04:01 complex (SLA-2*04:01): - (t1/2 (hours) is listed for each of the stably binding peptides (t1/2 ≥ 0.5 h))
YVPTVFENY [RhoC60, porcine RhoC-derived 9-11mer peptide]	- (t1/2 (hours) is listed for each of the stably binding peptides (t1/2 ≥ 0.5 h))			Binder (t1/2 ≥ 0.5 h): half-life of peptide-SLA-2*04:01 complex (SLA-2*04:01): - (t1/2 (hours) is listed for each of the stably binding peptides (t1/2 ≥ 0.5 h))

From PMC4584933, “Establishing the pig as a large animal model for vaccine development against human cancer” (Frontiers in Genetics, 2015)
